Laboratory results: ChEMBL document CHEMBL1201862, “PubChem BioAssay data set” (2004)
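Cells were grown in 96-well plates and exposed to each compound for 48 hours at five concentrations; endpoints were interpolated linearly between bracketing concentrations, or set to the highest concentration if not reached. GI50 is the concentration that inhibits growth by half.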 Active and inactive are the calls of the source. Cut-off read from the data, not from the text of the source: active = GI50 up to about 1.1 µM and inactive = higher.

Experiments:
Assay in all cases: inhibition of tumour cell growth, NCI panel, 48 h
HCT-15 = system: HCT-15
MDA-MB-231 = system: MDA-MB-231
SK-MEL-28 = system: SK-MEL-28
EKVX = system: EKVX
UACC-257 = system: UACC-257
MOLT-4 = system: MOLT-4
HOP-92 = system: HOP-92
UO-31 = system: UO-31
IGROV-1 = system: IGROV-1
A549 = system: A549
RPMI-8226 = system: RPMI-8226
SF-539 = system: SF-539
KM12 = system: KM12
DU-145 = system: DU-145
T47D = system: T47D
TK-10 = system: TK-10
OVCAR-8 = system: OVCAR-8
NCI/ADR-RES = system: NCI/ADR-RES
SF-295 = system: SF-295
U-251 = system: U-251
NCI-H460 = system: NCI-H460
SN12C = system: SN12C
HCC 2998 = system: HCC 2998
SK-OV-3 = system: SK-OV-3
NCI-H226 = system: NCI-H226
NCI-H23 = system: NCI-H23
MDA-MB-435 = system: MDA-MB-435
HL-60 = system: HL-60
COLO 205 = system: COLO 205
SNB-19 = system: SNB-19
SK-MEL-5 = system: SK-MEL-5
HT-29 = system: HT-29
SW-620 = system: SW-620
M14 = system: M14
ACHN = system: ACHN
SR = system: SR
LOX IMVI = system: LOX IMVI
HOP-62 = system: HOP-62
OVCAR-4 = system: OVCAR-4
Malme-3M = system: Malme-3M
HCT-116 = system: HCT-116
SF-268 = system: SF-268
UACC-62 = system: UACC-62
RXF 393 = system: RXF 393
MCF7 = system: MCF7
786-0 = system: 786-0
Hs-578T = system: Hs-578T
SNB-75 = system: SNB-75
A498 = system: A498
CCRF-CEM = system: CCRF-CEM
OVCAR-5 = system: OVCAR-5
NCI-H522 = system: NCI-H522
SK-MEL-2 = system: SK-MEL-2
K562 = system: K562
OVCAR-3 = system: OVCAR-3
BT-549 = system: BT-549
CAKI-1 = system: CAKI-1

Question: Which results are given for COc1cc(C2NCCC(c3ccccc3)(c3ccccc3)N2)cc(OC)c1OC (stereo unspecified)?
Answer: GI50 (HCT-15): 38.5 µM; GI50 (MDA-MB-231): 68.9 µM (inactive); GI50 (SK-MEL-28): 17 µM (inactive); GI50 (EKVX): > 100 µM (inactive); GI50 (UACC-257): 18.2 µM (inactive); GI50 (MOLT-4): > 10 µM (inactive); GI50 (HOP-92): 3.52 µM (inactive); GI50 (UO-31): 12.2 µM (inactive); GI50 (IGROV-1): 27.2 µM (inactive); GI50 (A549): 32.4 µM (inactive); GI50 (RPMI-8226): 7.36 µM (inactive); GI50 (SF-539): 11.3 µM (inactive); GI50 (KM12): 12.6 µM (inactive); GI50 (DU-145): 97.3 µM (inactive); GI50 (T47D): 58.2 µM (inactive); GI50 (TK-10): 9.31 µM (inactive); GI50 (OVCAR-8): 60.4 µM (inactive); GI50 (NCI/ADR-RES): > 100 µM (inactive); GI50 (SF-295): 7.1 µM (inactive); GI50 (U-251): 32.9 µM (inactive); GI50 (NCI-H460): 9.59 µM (inactive); GI50 (SN12C): 59.3 µM (inactive); GI50 (HCC 2998): 20.7 µM (inactive); GI50 (SK-OV-3): 78 µM (inactive); GI50 (NCI-H226): 12.7 µM (inactive); GI50 (NCI-H23): 23.4 µM (inactive); GI50 (MDA-MB-435): 18.5 µM (inactive); GI50 (HL-60): 5.83 µM (inactive); GI50 (COLO 205): 16.1 µM (inactive); GI50 (SNB-19): 55.7 µM (inactive); GI50 (SK-MEL-5): 17.3 µM (inactive); GI50 (HT-29): 4.66 µM (inactive); GI50 (SW-620): 19 µM (inactive); GI50 (M14): 11.7 µM (inactive); GI50 (ACHN): 61.2 µM (inactive); GI50 (SR): 26.4 µM (inactive); GI50 (LOX IMVI): 13.5 µM (inactive); GI50 (HOP-62): 34 µM (inactive); GI50 (OVCAR-4): 81.1 µM (inactive); GI50 (Malme-3M): 19.1 µM (inactive); GI50 (HCT-116): 4.43 µM (inactive); GI50 (SF-268): 52.4 µM (inactive); GI50 (UACC-62): 25.2 µM (inactive); GI50 (RXF 393): 42.7 µM (inactive); GI50 (MCF7): 20.1 µM (inactive); GI50 (786-0): 22.6 µM (inactive); GI50 (Hs-578T): 26.1 µM (inactive); GI50 (SNB-75): 41.7 µM (inactive); GI50 (A498): 18.7 µM (inactive); GI50 (CCRF-CEM): 39.3 µM (inactive)

Question: What does the source list for CCOC(=O)/C(=N/Nc1ccccc1)N1C(=S)N(C)N=C(C)C=C1S?
Answer: GI50 (HCT-15): > 100 µM; GI50 (MDA-MB-231): 43.9 µM (inactive); GI50 (SK-MEL-28): > 100 µM (inactive); GI50 (EKVX): > 100 µM (inactive); GI50 (OVCAR-5): > 100 µM (inactive); GI50 (UACC-257): > 100 µM (inactive); GI50 (MOLT-4): > 100 µM (inactive); GI50 (HOP-92): 47.8 µM (inactive); GI50 (UO-31): > 100 µM (inactive); GI50 (IGROV-1): > 100 µM (inactive); GI50 (A549): > 100 µM (inactive); GI50 (RPMI-8226): > 100 µM (inactive); GI50 (SF-539): > 100 µM (inactive); GI50 (NCI-H522): 27 µM (inactive); GI50 (KM12): > 100 µM (inactive); GI50 (DU-145): > 100 µM (inactive); GI50 (T47D): 44.2 µM (inactive); GI50 (TK-10): 86.1 µM (inactive); GI50 (OVCAR-8): > 100 µM (inactive); GI50 (NCI/ADR-RES): > 100 µM (inactive); GI50 (SF-295): 28.4 µM (inactive); GI50 (U-251): 20 µM (inactive); GI50 (NCI-H460): > 100 µM (inactive); GI50 (SN12C): > 100 µM (inactive); GI50 (HCC 2998): > 100 µM (inactive); GI50 (SK-OV-3): > 100 µM (inactive); GI50 (NCI-H23): 33.9 µM (inactive); GI50 (MDA-MB-435): > 100 µM (inactive); GI50 (HL-60): > 100 µM (inactive); GI50 (COLO 205): > 100 µM (inactive); GI50 (SNB-19): > 100 µM (inactive); GI50 (SK-MEL-5): > 100 µM (inactive); GI50 (HT-29): > 100 µM (inactive); GI50 (SK-MEL-2): > 100 µM (inactive); GI50 (SW-620): > 100 µM (inactive); GI50 (M14): > 100 µM (inactive); GI50 (ACHN): > 100 µM (inactive); GI50 (SR): > 100 µM (inactive); GI50 (K562): > 100 µM (inactive); GI50 (OVCAR-3): > 100 µM (inactive); GI50 (OVCAR-4): > 100 µM (inactive); GI50 (BT-549): 76.9 µM (inactive); GI50 (HCT-116): > 100 µM (inactive); GI50 (SF-268): 6.82 µM (inactive); GI50 (UACC-62): 83.4 µM (inactive); GI50 (RXF 393): 0.465 µM (active); GI50 (MCF7): > 100 µM (inactive); GI50 (Hs-578T): 70 µM (inactive); GI50 (SNB-75): 10 µM (inactive); GI50 (CCRF-CEM): > 100 µM (inactive); GI50 (CAKI-1): > 100 µM (inactive)
